US8741879B2, “Petroleum jelly-free unguent compositions comprising vitamin D compounds and optionally steroidal anti-inflammatory agents” (Galderma S.A., priority 2006, dated 2014)

Experiments:
[1] = Stability of calcitriol 30 ppm solution in absolute ethanol with 0.02% BHT (HPLC assay against a reference substance); type: physicochemical; details: 30 ppm in absolute ethanol
Description: b) Stability of Calcitriol in Ethanol: Calcitriol solution 30 ppm in qs 100% absolute ethanol in the presence of 0.02% BHT. Assay technique by HPLC against a reference substance. The starting time (T0) is considered to be 100%.

[2] = Solubility of clobetasol propionate in solvents (HPLC); type: physicochemical
Description: a) Solubility of Clobetasol Propionate:

Row | Structure (SMILES) | Calcitriol remaining (T0 = 100%) ([1]; +4° C., T1week) | Calcitriol remaining (T0 = 100%) ([1]; +4° C., T2weeks) | Calcitriol remaining (T0 = 100%) ([1]; +4° C., T3weeks) | Calcitriol remaining (T0 = 100%) ([1]; +4° C., T4weeks) | Calcitriol remaining (T0 = 100%) ([1]; +30° C., T2weeks) | Calcitriol remaining (T0 = 100%) ([1]; +30° C., T4weeks) | Calcitriol remaining (T0 = 100%) ([1]; −18° C., T1week) | Calcitriol remaining (T0 = 100%) ([1]; −18° C., T2weeks) | Calcitriol remaining (T0 = 100%) ([1]; −18° C., T3weeks) | Calcitriol remaining (T0 = 100%) ([1]; −18° C., T4weeks) | Solubility ([2]; in Ethanol 96) | Solubility ([2]; in Propylene glycol) | Solubility ([2]; in Transcutol)
1 | C=C1/C(=C\C=C2/CCC[C@]3(C)[C@@H]([C@H](C)CCCC(C)(C)O)CC[C@@H]23)C[C@@H](O)C[C@@H]1O [Calcitriol, calcitriol] | 97.7% | 98.6% | 98.1% | 97.7% | 93.4% | 93.0% | 100.9% | 100.5% | 99.5% | 99.5% | – | – | –
2 | CCC(=O)O[C@]1(C(=O)CCl)[C@@H](C)C[C@H]2[C@@H]3CCC4=CC(=O)C=C[C@]4(C)[C@@]3(F)[C@@H](O)C[C@@]21C [Clobetasol Propionate, clobetasol 17-propionate] | – | – | – | – | – | – | – | – | – | – | 50.40 mg/g | 9.10 mg/g | 120.70 mg/g
